Data reported in PubChem BioAssay AID248 (DTP/NCI, 2004).
Several values for one entry are separate records, joined by “and”; a condition that tells them apart may be missing. Equal entries are not always repeated. Toxic doses and inconclusive results are not listed. Cut-off read from the data, not from the text of the source: active = T/C of 150% or more; inactive = T/C below 125%.

Tested on: L1210 leukemia ip in BDF1 mice, survival T/C
Assay: NCI In Vivo Anticancer Drug Screen. Data for tumor model L1210 Leukemia (intraperitoneal) in B6D2F1 (BDF1) mice
Conditions: endpoint: mean survival time, higher = longer survival
Method in brief: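 Survival endpoint. Drug-treated group vs vehicle group, expressed as T divided by C. Tumor passaged by transplantation.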

[1] = dose: 100.0 mg/kg/injection, schedule: Q01DX009 (ip), vehicle: Klucel (hydroxypropylcellulose) (HPC)
[2] = dose: 100.0 mg/kg/injection, schedule: Q04DX003 (ip), vehicle: Klucel (hydroxypropylcellulose) (HPC)
[3] = dose: 200.0 mg/kg/injection, schedule: Q01DX009 (ip), vehicle: Klucel (hydroxypropylcellulose) (HPC)
[4] = dose: 200.0 mg/kg/injection, schedule: Q04DX003 (ip), vehicle: Klucel (hydroxypropylcellulose) (HPC)
[5] = dose: 400.0 mg/kg/injection, schedule: Q01DX009 (ip), vehicle: Klucel (hydroxypropylcellulose) (HPC)
[6] = dose: 75.0 mg/kg/injection, schedule: Q04DX003 (ip), vehicle: other
[7] = dose: 100.0 mg/kg/injection, schedule: Q01DX001 (ip), vehicle: saline
[8] = dose: 200.0 mg/kg/injection, schedule: Q04DX002 (ip), vehicle: saline
[9] = dose: 400.0 mg/kg/injection, schedule: Q04DX002 (ip), vehicle: saline
[10] = dose: 100.0 mg/kg/injection, schedule: Q01DX001 (ip), vehicle: carboxymethylcellulose (CMC)
[11] = dose: 200.0 mg/kg/injection, schedule: Q01DX001 (ip), vehicle: carboxymethylcellulose (CMC)
[12] = dose: 400.0 mg/kg/injection, schedule: Q01DX001 (ip), vehicle: carboxymethylcellulose (CMC)
[13] = dose: 100.0 mg/kg/injection, schedule: Q01DX001 (ip), vehicle: saline with Tween-80
[14] = dose: 100.0 mg/kg/injection, schedule: Q01DX009 (ip), vehicle: saline with Tween-80
[15] = dose: 200.0 mg/kg/injection, schedule: Q01DX001 (ip), vehicle: saline with Tween-80
[16] = dose: 200.0 mg/kg/injection, schedule: Q01DX009 (ip), vehicle: saline with Tween-80
[17] = dose: 400.0 mg/kg/injection, schedule: Q01DX009 (ip), vehicle: saline with Tween-80
[18] = dose: 100.0 mg/kg/injection, schedule: Q04DX003 (ip), vehicle: saline

Measured: T/C

CCCCCCCCCCCCCCCCCCNC(=O)Nc1ccc(C(C)C)cc1
inactive: [1] 95 % of control | [2] 89 % of control | [3] 92 % of control | [4] 89 % of control | [5] 92 % of control

CN(C)[C@@H]1C(=O)C(C(N)=O)=C(O)[C@@]2(O)C(=O)C3=C(O)c4c(O)cccc4C[C@H]3C[C@@H]12
inactive: dose: 12.5 mg/kg/injection, schedule: Q01DX001 (ip), vehicle: other 94 % of control | dose: 12.5 mg/kg/injection, schedule: Q04DX003 (ip), vehicle: Klucel (hydroxypropylcellulose) (HPC) 98 % of control | dose: 18.75 mg/kg/injection, schedule: Q01DX009 (ip), vehicle: other 111 % of control | dose: 25.0 mg/kg/injection, schedule: Q01DX001 (ip), vehicle: other 96 % of control | dose: 25.0 mg/kg/injection, schedule: Q04DX003 (ip), vehicle: Klucel (hydroxypropylcellulose) (HPC) 104 % of control | dose: 37.5 mg/kg/injection, schedule: Q01DX009 (ip), vehicle: other 117 % of control | dose: 50.0 mg/kg/injection, schedule: Q01DX001 (ip), vehicle: other 100 % of control | dose: 50.0 mg/kg/injection, schedule: Q04DX003 (ip), vehicle: Klucel (hydroxypropylcellulose) (HPC) 107 % of control | [6] 107 % of control | [7] 112 % of control

CCCCCCCCCC(=O)N(CC)CC
inactive: [8] 111 % of control | [9] 92 % of control

CCCCCCCCCCCCCC(CCCCCC)c1ccccc1 (centres undefined)
inactive: dose: 100.0 mg/kg/injection, schedule: Q01DX001 (ip), vehicle: saline + alcohol 119 % of control | dose: 200.0 mg/kg/injection, schedule: Q01DX001 (ip), vehicle: saline + alcohol 106 % of control | dose: 400.0 mg/kg/injection, schedule: Q01DX001 (ip), vehicle: saline + alcohol 95 % of control

Clc1cc(-c2ccccc2Br)nc2ccccc12
inactive: [7] 90 % of control | dose: 200.0 mg/kg/injection, schedule: Q01DX001 (ip), vehicle: saline 90 % of control | dose: 400.0 mg/kg/injection, schedule: Q01DX001 (ip), vehicle: saline 88 % of control

O=C(OC1COC(n2c(=O)oc3ccc(F)cc32)C(OC(=O)c2ccccc2)C1OC(=O)c1ccccc1)c1ccccc1 (centres undefined)
inactive: [10] 91 % of control | [1] 94 % of control | [11] 89 % of control | [3] 89 % of control | [12] 89 % of control | [5] 87 % of control

COc1cc(C)ccc1C(=O)c1ccc(C)cc1OC
inactive: [13] 100 % of control | [14] 98 % of control | [2] 86 % of control | [15] 100 % of control | [16] 92 % of control | [4] 93 % of control | dose: 400.0 mg/kg/injection, schedule: Q01DX001 (ip), vehicle: saline with Tween-80 92 % of control | [17] 103 % of control | dose: 400.0 mg/kg/injection, schedule: Q04DX003 (ip), vehicle: Klucel (hydroxypropylcellulose) (HPC) 93 % of control

CN(Cc1cnc2cc(N)[nH]c(=O)c2n1)c1ccc(C(=O)NC(CCC(=O)O)C(=O)O)cc1 (centres undefined)
inactive: dose: 100.0 mg/kg/injection, schedule: Q04DX002 (ip), vehicle: water 94 % of control | dose: 200.0 mg/kg/injection, schedule: Q04DX002 (ip), vehicle: water 99 % of control | dose: 400.0 mg/kg/injection, schedule: Q04DX002 (ip), vehicle: water 118 % of control

CC1=NCCC[N-]CC[N-]CCCN=C1C.[Ni+2].[O-][Cl+3]([O-])([O-])O
inactive: dose: 100.0 mg/kg/injection, schedule: Q04DX002 (ip), vehicle: saline 94 % of control | [8] 94 % of control | [9] 98 % of control

CCCC(CCN1CCCC1)(CNC(=O)CN(CC)CC)c1cccc2ccccc12 (centres undefined)
inactive: dose: 25.0 mg/kg/injection, schedule: Q04DX003 (ip), vehicle: saline 103 % of control | dose: 50.0 mg/kg/injection, schedule: Q04DX003 (ip), vehicle: saline 104 % of control | [18] 106 % of control

COC(=O)CCC(=O)Nc1cccc2cnccc12
inactive: [18] 102 % of control | dose: 400.0 mg/kg/injection, schedule: Q04DX003 (ip), vehicle: saline 102 % of control

CCCCCCCCCCC(CCCCCCCCCC)CC(C)(C)C
inactive: dose: 50.0 mg/kg/injection, schedule: Q01DX001 (ip), vehicle: saline with Tween-80 103 % of control | [13] 96 % of control | [15] 103 % of control

CC(C)(C#N)NC(=O)NC(C)(C)C#N
inactive: dose: 50.0 mg/kg/injection, schedule: Q01DX009 (ip), vehicle: saline with Tween-80 101 % of control | [14] 97 % of control | [16] 97 % of control

O=C(Nc1cc([N+](=O)[O-])ccc1Cl)SCc1ccccc1
inactive: [14] 102 % of control | [16] 98 % of control | [17] 102 % of control

CSc1ccc(P(=NS(=O)(=O)c2ccc(C)cc2)(c2ccc(SC)cc2)c2ccc(SC)cc2)cc1
inactive: [1] 104 % of control | [3] 98 % of control

N#[N+]c1c([O-])[nH]c(=O)[nH]c1=O
inactive: dose: 50.0 mg/kg/injection, schedule: Q01DX009 (ip), vehicle: Klucel (hydroxypropylcellulose) (HPC) 95 % of control | [1] 107 % of control | [3] 88 % of control

Nc1ccc2c(c1)Cc1c-2cc(I)c(O)c1I
inactive: [10] 98 % of control | [11] 101 % of control | [12] 101 % of control

CCCCCCC(C)NCCOC(=O)c1ccc(N)cc1 (centres undefined)
inactive: dose: 38.0 mg/kg/injection, schedule: Q04DX003 (ip), vehicle: other 104 % of control | dose: 75.0 mg/kg/injection, schedule: Q01DX001 (ip), vehicle: other 106 % of control and 98 % of control | dose: 75.0 mg/kg/injection, schedule: Q01DX001 (ip), vehicle: saline 96 % of control and 100 % of control | [6] 104 % of control | dose: 150.0 mg/kg/injection, schedule: Q01DX001 (ip), vehicle: other 98 % of control and 93 % of control | dose: 150.0 mg/kg/injection, schedule: Q01DX001 (ip), vehicle: saline 91 % of control

CCOC(=O)/C=C/c1cccc(O)c1
inactive: dose: 100.0 mg/kg/injection, schedule: Q01DX001 (ip), vehicle: gum acacia 106 % of control | dose: 200.0 mg/kg/injection, schedule: Q01DX001 (ip), vehicle: gum acacia 110 % of control | dose: 400.0 mg/kg/injection, schedule: Q01DX001 (ip), vehicle: gum acacia 97 % of control

COc1ccc([N+](=O)[O-])cc1NC(=O)C(Cl)Cl
inactive: [10] 99 % of control | [11] 100 % of control | [12] 110 % of control

Br/C=C/c1ccccc1
inactive: dose: 100.0 mg/kg/injection, schedule: Q04DX002 (ip), vehicle: saline with Tween-80 94 % of control | dose: 200.0 mg/kg/injection, schedule: Q04DX002 (ip), vehicle: saline with Tween-80 97 % of control | dose: 400.0 mg/kg/injection, schedule: Q04DX002 (ip), vehicle: saline with Tween-80 100 % of control

Clc1c2ccccc2cc2ccccc12
inactive: dose: 100.0 mg/kg/injection, schedule: Q04DX002 (ip), vehicle: Klucel (hydroxypropylcellulose) (HPC) 92 % of control | dose: 200.0 mg/kg/injection, schedule: Q04DX002 (ip), vehicle: Klucel (hydroxypropylcellulose) (HPC) 100 % of control | dose: 400.0 mg/kg/injection, schedule: Q04DX002 (ip), vehicle: Klucel (hydroxypropylcellulose) (HPC) 107 % of control
